# According to BindingDB's records for PubMed 8078486 (Eli Lilly, 1994):
# Experiments:
# [1] = molecular target: 5-hydroxytryptamine receptor 2B (Homo sapiens, UniProt P41595)
# [2] = molecular target: 5-hydroxytryptamine receptor 2B (Rattus norvegicus, UniProt P30994)
# Sequence of 5-hydroxytryptamine receptor 2B (Rattus norvegicus, UniProt P30994) (P30994 whole entry): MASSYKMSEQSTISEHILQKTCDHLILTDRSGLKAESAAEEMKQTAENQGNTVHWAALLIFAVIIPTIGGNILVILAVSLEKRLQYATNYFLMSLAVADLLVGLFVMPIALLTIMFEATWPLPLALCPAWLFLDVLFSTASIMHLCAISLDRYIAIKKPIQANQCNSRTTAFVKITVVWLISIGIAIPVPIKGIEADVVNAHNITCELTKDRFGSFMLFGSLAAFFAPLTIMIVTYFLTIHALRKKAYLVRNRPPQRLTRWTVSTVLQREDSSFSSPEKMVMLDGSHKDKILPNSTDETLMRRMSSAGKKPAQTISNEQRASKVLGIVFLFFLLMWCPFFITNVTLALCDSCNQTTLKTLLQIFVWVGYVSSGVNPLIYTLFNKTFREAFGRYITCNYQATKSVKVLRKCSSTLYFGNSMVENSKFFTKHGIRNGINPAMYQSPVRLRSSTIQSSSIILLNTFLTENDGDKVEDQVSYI
# Sequence of 5-hydroxytryptamine receptor 2B (Homo sapiens, UniProt P41595) (P41595 whole entry): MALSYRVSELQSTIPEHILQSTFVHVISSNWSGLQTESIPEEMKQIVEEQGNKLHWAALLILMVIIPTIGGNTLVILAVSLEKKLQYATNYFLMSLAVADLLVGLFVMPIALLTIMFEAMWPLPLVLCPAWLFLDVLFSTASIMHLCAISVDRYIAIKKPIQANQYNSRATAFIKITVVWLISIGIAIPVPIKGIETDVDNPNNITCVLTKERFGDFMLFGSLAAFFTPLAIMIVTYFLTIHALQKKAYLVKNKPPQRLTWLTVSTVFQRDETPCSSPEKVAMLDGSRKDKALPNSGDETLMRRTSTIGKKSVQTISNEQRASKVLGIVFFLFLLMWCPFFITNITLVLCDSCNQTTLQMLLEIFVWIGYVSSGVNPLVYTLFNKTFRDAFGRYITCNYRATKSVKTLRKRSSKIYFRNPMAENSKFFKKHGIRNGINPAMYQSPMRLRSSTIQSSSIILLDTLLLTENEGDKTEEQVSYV
Structure (SMILES),Ki [1] [nM],Ki [2] [nM]
"Cn1cc(CCN)c2cc(O)ccc21 [5-HT,omega-N-Me]",11.9,–
"O=C(CCCN1CCC2(CC1)C(=O)NCN2c1ccccc1)c1ccc(F)cc1 [8-[4-(4-fluorophenyl)-4-oxidanylidene-butyl]-1-phenyl-1,3,8-triazaspiro[4.5]decan-4-one]",697,–
"COc1cc(CC(C)N)c(OC)cc1I (centres undefined) [[125I]2,5-dimethoxy-4-iodoamphetamine]",19.9,26.6
